Experimental data reported in ChEMBL document CHEMBL1201862, “PubChem BioAssay data set” (2004).
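Compound exposure: 48 hours, 5 concentrations, 96-well plates. GI50: concentration for 50% inhibition of growth.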 Active and inactive are the calls of the source. No stated cut-off is given here; in the data, active = GI50 up to about 1.1 µM and inactive = higher.

How the values were obtained:
Assay in all cases: DTP human tumour cell line panel, 48 h
786-0 = test system: 786-0
A498 = test system: A498
A549 = test system: A549
ACHN = test system: ACHN
BT-549 = test system: BT-549
CAKI-1 = test system: CAKI-1
CCRF-CEM = test system: CCRF-CEM
COLO 205 = test system: COLO 205
DU-145 = test system: DU-145
EKVX = test system: EKVX
HCT-116 = test system: HCT-116
HCT-15 = test system: HCT-15
HL-60 = test system: HL-60
HOP-62 = test system: HOP-62
HOP-92 = test system: HOP-92
HT-29 = test system: HT-29
Hs-578T = test system: Hs-578T
IGROV-1 = test system: IGROV-1
K562 = test system: K562
KM12 = test system: KM12
LOX IMVI = test system: LOX IMVI
M14 = test system: M14
MCF7 = test system: MCF7
MDA-MB-231 = test system: MDA-MB-231
MDA-MB-435 = test system: MDA-MB-435
MDA-N = test system: MDA-N
MOLT-4 = test system: MOLT-4
Malme-3M = test system: Malme-3M
NCI-H226 = test system: NCI-H226
NCI-H23 = test system: NCI-H23
NCI-H460 = test system: NCI-H460
NCI-H522 = test system: NCI-H522
NCI/ADR-RES = test system: NCI/ADR-RES
OVCAR-3 = test system: OVCAR-3
OVCAR-4 = test system: OVCAR-4
OVCAR-5 = test system: OVCAR-5
OVCAR-8 = test system: OVCAR-8
PC-3 = test system: PC-3
RXF 393 = test system: RXF 393
SF-268 = test system: SF-268
SF-295 = test system: SF-295
SK-MEL-28 = test system: SK-MEL-28
SK-MEL-5 = test system: SK-MEL-5
SK-OV-3 = test system: SK-OV-3
SN12C = test system: SN12C
SNB-19 = test system: SNB-19
SNB-75 = test system: SNB-75
SR = test system: SR
SW-620 = test system: SW-620
T47D = test system: T47D
TK-10 = test system: TK-10
U-251 = test system: U-251
UACC-257 = test system: UACC-257
UACC-62 = test system: UACC-62
UO-31 = test system: UO-31
HCC 2998 = test system: HCC 2998
RPMI-8226 = test system: RPMI-8226
SF-539 = test system: SF-539
SK-MEL-2 = test system: SK-MEL-2

For `COC(=O)[C@H](Cc1ccccc1)NC(=O)[C@H](Cc1ccccc1)NC(=O)[C@@H]1CCCN1C(=O)N[C@H]1C2C=CC(C2)C1C(=O)N1CCC[C@H]1C(=O)N[C@@H](C)C(=O)N[C@H](C(=O)OC)C(C)C` (stereo partly drawn), the GI50 (786-0) was > 100 µM (inactive), the GI50 (A498) was > 100 µM (inactive) and the GI50 (A549) was > 100 µM (inactive). The GI50 (ACHN) was > 100 µM (inactive), the GI50 (BT-549) was 40.9 µM (inactive) and the GI50 (CAKI-1) was > 100 µM (inactive). For the same molecule, the GI50 (CCRF-CEM) was 22.5 µM (inactive), the GI50 (COLO 205) was > 100 µM (inactive) and the GI50 (DU-145) was > 100 µM (inactive). For the same molecule, the GI50 (EKVX) was > 100 µM (inactive), the GI50 (HCT-116) was > 100 µM (inactive) and the GI50 (HCT-15) was greater than 100 µM. The GI50 (HL-60) was 35.7 µM (inactive), the GI50 (HOP-62) was > 100 µM (inactive) and the GI50 (HOP-92) was 73.1 µM (inactive). The GI50 (HT-29) was > 100 µM (inactive), the GI50 (Hs-578T) was 59.6 µM (inactive) and the GI50 (IGROV-1) was 38 µM (inactive). For the same molecule, the GI50 (K562) was 33.9 µM (inactive), the GI50 (KM12) was > 100 µM (inactive) and the GI50 (LOX IMVI) was 41.3 µM (inactive). The GI50 (M14) was > 100 µM (inactive), the GI50 (MCF7) was 56.9 µM (inactive) and the GI50 (MDA-MB-231) was 46.5 µM (inactive). For the same molecule, the GI50 (MDA-MB-435) was > 100 µM (inactive), the GI50 (MDA-N) was > 100 µM (inactive) and the GI50 (MOLT-4) was 29.4 µM (inactive). The GI50 (Malme-3M) was > 100 µM (inactive), the GI50 (NCI-H226) was > 100 µM (inactive) and the GI50 (NCI-H23) was > 100 µM (inactive). The GI50 (NCI-H460) was > 100 µM (inactive), the GI50 (NCI-H522) was 56.5 µM (inactive) and the GI50 (NCI/ADR-RES) was > 100 µM (inactive). For the same molecule, the GI50 (OVCAR-3) was > 100 µM (inactive), the GI50 (OVCAR-4) was > 100 µM (inactive) and the GI50 (OVCAR-5) was > 100 µM (inactive). The GI50 (OVCAR-8) was > 100 µM (inactive), the GI50 (PC-3) was > 100 µM (inactive) and the GI50 (RXF 393) was > 100 µM (inactive). The GI50 (SF-268) was 94.2 µM (inactive), the GI50 (SF-295) was 30.8 µM (inactive) and the GI50 (SK-MEL-28) was > 100 µM (inactive). For the same molecule, the GI50 (SK-MEL-5) was > 100 µM (inactive), the GI50 (SK-OV-3) was > 100 µM (inactive) and the GI50 (SN12C) was > 100 µM (inactive). For the same molecule, the GI50 (SNB-19) was > 100 µM (inactive), the GI50 (SNB-75) was > 100 µM (inactive) and the GI50 (SR) was 49.7 µM (inactive). For the same molecule, the GI50 (SW-620) was 69.3 µM (inactive), the GI50 (T47D) was 60.1 µM (inactive) and the GI50 (TK-10) was 65.5 µM (inactive). The GI50 (U-251) was 70.3 µM (inactive), the GI50 (UACC-257) was > 100 µM (inactive) and the GI50 (UACC-62) was 92 µM (inactive). The GI50 (UO-31) was > 100 µM (inactive).

For `N#Cc1c(-c2ccc(F)cc2)c(-c2ccc(F)cc2)nn(CCO)c1=O`, the GI50 (786-0) was 0.421 µM (active), the GI50 (A549) was 0.25 µM (active) and the GI50 (ACHN) was 0.413 µM (active). For the same molecule, the GI50 (BT-549) was 0.879 µM (active), the GI50 (CAKI-1) was 1.53 µM (inactive) and the GI50 (CCRF-CEM) was 0.564 µM (active). For the same molecule, the GI50 (COLO 205) was 0.24 µM (active), the GI50 (DU-145) was 0.743 µM (active) and the GI50 (EKVX) was 0.47 µM (active). For the same molecule, the GI50 (HCC 2998) was 0.605 µM (active), the GI50 (HCT-116) was 0.119 µM (active) and the GI50 (HCT-15) was 0.132 µM. The GI50 (HL-60) was 0.091 µM (active), the GI50 (HOP-62) was 0.493 µM (active) and the GI50 (HOP-92) was 1.91 µM (inactive). For the same molecule, the GI50 (HT-29) was 0.143 µM (active), the GI50 (Hs-578T) was 0.885 µM (active) and the GI50 (IGROV-1) was 0.155 µM (active). For the same molecule, the GI50 (K562) was 0.103 µM (active), the GI50 (KM12) was 0.126 µM (active) and the GI50 (MCF7) was 3.16 µM (inactive). The GI50 (MDA-MB-231) was 0.661 µM (active), the GI50 (MDA-MB-435) was 0.0641 µM (active) and the GI50 (MDA-N) was 0.0492 µM (active). For the same molecule, the GI50 (MOLT-4) was 0.242 µM (active), the GI50 (Malme-3M) was 0.743 µM (active) and the GI50 (NCI-H226) was 1.77 µM (inactive). The GI50 (NCI-H23) was 0.948 µM (active), the GI50 (NCI-H460) was 0.237 µM (active) and the GI50 (NCI/ADR-RES) was 0.805 µM (active). The GI50 (OVCAR-3) was 0.242 µM (active), the GI50 (OVCAR-4) was 1.32 µM (inactive) and the GI50 (OVCAR-5) was 1.82 µM (inactive). The GI50 (PC-3) was 0.416 µM (active), the GI50 (RPMI-8226) was 0.213 µM (active) and the GI50 (RXF 393) was 0.378 µM (active). The GI50 (SF-268) was 0.875 µM (active), the GI50 (SF-295) was 0.224 µM (active) and the GI50 (SF-539) was 0.198 µM (active). The GI50 (SK-MEL-28) was 17.8 µM (inactive), the GI50 (SK-MEL-2) was < 0.01 µM (active) and the GI50 (SK-MEL-5) was 0.175 µM (active). The GI50 (SK-OV-3) was 0.288 µM (active), the GI50 (SN12C) was 0.27 µM (active) and the GI50 (SNB-19) was 4.9 µM (inactive). The GI50 (SNB-75) was 0.183 µM (active), the GI50 (SR) was 0.2 µM (active) and the GI50 (T47D) was 2.33 µM (inactive). For the same molecule, the GI50 (TK-10) was 3.36 µM (inactive), the GI50 (U-251) was 0.178 µM (active) and the GI50 (UACC-257) was 1.19 µM (inactive). The GI50 (UACC-62) was 0.14 µM (active) and the GI50 (UO-31) was 1.38 µM (inactive).
